In patent US11654178B2, “Cyclic prosaposin peptides and uses thereof” (CHILDREN'S MEDICAL CENTER CORPORATION, priority 2014, dated 2023):
Where a SMILES comes first, the peptide text is derived from it.

What was measured:
thrombospondin-1 (Tsp-1) = experiment: Tsp-1 activation in cultured cells by Western blot; format: cell-based; conditions: cyclic peptides, 4 micrograms/mL or 10 micrograms/mL, Western blot, FIG. 2
Method: Cells were cultured and contacted with 4 micrograms/mL or 10 micrograms/mL of each peptide and the level of thrombospondin-1 (Tsp-1) activation was measured by Western blot. Tsp-1 has been previously shown to be activated by Saposin A protein.

[1] = Stability in human plasma at 37° C., read out as Tsp-1 stimulation in WI-38 fibroblasts (ELISA); format: in vitro ADME; conditions: 24 hours
Method: The cyclic peptide DWLPK (SEQ ID NO: 1) was also tested for stability in human plasma compared to the linear peptide dWIP (SEQ ID NO: 5). Each peptide was incubated in human plasma at 37 degrees Celsius, for 2, 4, 8, or 24 hours.
Cyclization also has the effect of increasing the stability of peptides by forcing them into a conformation that is not recognized by most naturally occurring proteases (9, 10, 14-18). The stability of the cyclic peptide to the linear d-amino acid peptide in human plasma was compared.

[2] = test system: patient-derived ovarian cancer cells expressing luciferase; experiment: Mouse model of ovarian cancer, luciferase tumor burden and histology; format: in vivo, mice; conditions: 10 mg/kg for 10 days
Method: Next the cyclic peptide DWLPK (SEQ ID NO: 1) was tested in a mouse model of ovarian cancer. For the ovarian cancer mouse model, 1 million patient-derived ovarian cancer cells expressing luciferase were injected intraperitoneally into mice. The tumor burden was measured in vivo using luciferase. Treatment with the cyclic peptide began after 40 days and was administered for 10 days at 10 mg/kg. After 10 days of treatment, the mice were euthanized and the tumor was analyzed histologically.

Tsp-1 = Tsp-1 stimulation in macrophages in mice; format: in vivo; conditions: FIG. 7, F4/80 macrophages
[3] = mouse, in vivo
[4] = test system: DSS-induced model of Crohn's Disease; experiment: Dextran Sodium Sulfate (DSS)-induced model of Crohn's Disease; format: in vivo, mice
Method: A model of Crohn's disease was used to test the efficacy of the cyclic peptide DWLPK (SEQ ID NO: 1) for treating Crohn's disease. The cyclic peptide was tested in a Dextran Sodium Sulfate (DSS)-induced model of Crohn's Disease where DSS was given to the mice in their drinking water (3.5% weight:volume) for 7 days. In one group the mice were treated concurrently with the cyclic peptide and DSS, while the other group was treated with DSS alone.

[5] = test system: thrombospondin-1 (Tsp-1) in WI-38 lung fibroblasts; experiment: Stimulation of Tsp-1 in WI-38 lung fibroblasts (western blot); format: cell-based
From the text: Identification of both a 4- and 5-amino acid peptide derived from the saposin A domain of Psap that was able to inhibit both a tail vein model of Lewis Lung Carcinoma metastasis and in an adjuvant model of breast cancer metastasis when administered systemically was previously described (3). The therapeutic efficacy of peptides is often limited by their stability, or resistance to degradation by proteases. […] The stability of the 4-amino acid Psap peptide by incorporating d-amino acids at different moieties was investigated. Two peptides with d-amino acids incorporated, in combination, at the first (aspartate) and third (leucine) or the second (tryptophan) and fourth (proline) residues were synthesized. The activity of these peptides along with the native 1-amino acid peptide in vitro by measuring their ability to stimulate thrombospondin-1 (Tsp-1) in WI-38 lung fibroblasts was tested.
While the results of the peptide treatment of the PDX model of ovarian cancer were very promising it was postulated that the stability and activity of the peptide could be increased even more. The peptide derived from Psap was located in a region of the protein that contained a 13-amino acid loop between two helices that was stabilized by a disulfide bond (3). As such a 5-amino acid peptide that was cyclized via backbone (N—C) cyclization was synthesized (FIG. 14A, cyclic DWLPK (SEQ ID NO: 1)). […]

DF14 cells = experiment: DF14 PDX model of metastatic ovarian cancer, cyclic peptide for 10 days; format: in vivo, mice
Method: Based on these findings the efficacy of the cyclic peptide using the DF14 model was tested. In order to better study the effects of the peptide on the metastatic lesions mice were injected with 1×10^7 cells and allowed the luciferase signal to reach 9×10^9 RLU. The mice were treated with the cyclic peptide for only 10 days to ensure that there would be sufficient tumor tissue to analyze. […] The liver, spleen and omentum were analyzed of both the peptide and control treated mice by H&E, and IHC for Tsp-1, Gil and TUNEL. The metastatic lesions in the control treated mice were, on average, 2.3-fold larger than those in the peptide treated mice (FIG. 14E). […] Moreover, all of the lesions in the peptide treated mice contained a significant percentage of TUNEL positive cells, with an average of 40% TUNEL positive cells/lesion (FIGS. 14H and 14I). Conversely, control treated tumors contained, on average, only 1.4% TUNEL positive cells/lesion (FIGS. 14H and 14I).

[6] = Activity of cyclic versus linear peptide (FIG. 18)
pancreatic cancer = experiment: Anti-tumor activity against pancreatic cancer (FIGS. 19 and 20); format: in vivo

CC(C)C[C@@H]1NC(=O)[C@H](Cc2c[nH]c3ccccc23)NC(=O)[C@H](CC(=O)O)NC(=O)[C@H](CCCCN)NC(=O)[C@@H]2CCCN2C1=O [cyclic DWLPK] (cyclo(DWLPK))
effectiveness at increasing the level of Tsp-1 (thrombospondin-1 (Tsp-1)): most effective
ability to activate Tsp-1 after incubation in human plasma ([1]; 37 degrees Celsius, FIG. 3): retained the ability to activate Tsp-1
Tsp-1 stimulating activity retained after incubation in human plasma ([1]; 37° C., ELISA): greater than 70%
size of treated tumors relative to untreated tumors by histology [2]: < 25%
Tsp-1 expression in treated tumors ([2]; histology): expressed Tsp-1
luciferase output (tumor burden) ([2]; starting after 40 days, FIG. 6): went down
Tsp-1 in macrophages in mice (Tsp-1): stimulated Tsp-1 in macrophages
toxicity to the liver or spleen by histology [3]: did not cause any toxicity
inflammation (MPO enzymatic activity) ([4]; DSS 3.5% in drinking water 7 days, peptide concurrently, FIG. 9): significantly reduced inflammation
body weight loss versus DSS only ([4]; FIG. 10): lost less weight
Tsp-1 stimulation in intestine ([4]; FIG. 11): stimulate Tsp-1
macrophage infiltration ([4]; FIG. 11): inhibit macrophage infiltration
Tsp-1 stimulation in vitro relative to d-amino acid linear peptide [5]: 3 fold
size of metastatic lesions in control treated mice relative to peptide treated mice (DF14 cells; 10 days of treatment, on average): 2.3 fold
TUNEL positive cells/lesion, average (DF14 cells; 10 days of treatment, control 1.4%): 40%
average luciferase signal after treatment (DF14 cells; after 10 days of treatment, start at 9×10^9 RLU, 10 mg/kg QD): 4×10^8 RLU
Tsp-1 staining of treated tumors (IHC) (DF14 cells; all of the peptide treated tumors): stained positive for Tsp-1
activity relative to the linear peptide [6]: approximately 2 fold
anti-tumor activity against pancreatic cancer (pancreatic cancer; FIG. 19): significant anti-tumor activity
effect on metastasis of pancreatic cancer (pancreatic cancer; FIG. 20): inhibits metastasis
effect on metastatic pancreatic cancer (pancreatic cancer; FIG. 20): regresses metastatic pancreatic cancer
